Experiments:
[1] = Incorporation of photocatalysts into TPU films versus process time, absorption spectroscopy against blank film (Beispiele 7a-9b); type: physicochemical; settings: TPU Folie, Rezeptur 1; Beispiel 7b, Tabelle 41
Method: Im nächsten Schritt wurde die Verwendbarkeit der verschiedene Photokatalysatorklassen, ausgewählt aus Phenalen-1-on-Derivaten, Curcumin-Derivaten und Porphycen-Derivaten, mit unterschiedlichen Eigenschaften - von neutral unpolar bis ionisch polar - auf Ihre Verwendbarkeit und Wirkung im Verfahren untersucht.
Zur Beurteilung der optimalen Prozesszeit bei Einsatz der Photokatalysatoren, wurden TPU Folienstücke nach Beschreibung in Beispiel 4 zu je 1, 2, 5 und 10 min in den Imprägnierlösungen behandelt, gegebenenfalls auch 30 und 60 min bei undeutlichen Ergebnissen.
Als Basisformulierung wurde Rezeptur 1 nach Beispiel 2 verwendet.
Nach der angegebenen Prozesszeit wurden die Folie entnommen, mit Wasser gewaschen und für 1h bei 40°C getrocknet/abgelüftet.
Die Folien wurden durch Absorptionsspektroskopie gegen ein Blank-Folienstück direkt vermessen, beim Maximum der Absorption des Photokatalysators. Dabei ergaben sich in Abhängigkeit der Prozesszeit folgende Werte, die in den Tabellen 40 bis

S.aureus ATCC 6538 = test: Antibacterial activity of impregnated films, modified ISO 22196 with illumination (Beispiele 11-16, 25); type: cell-based; settings: Beispiel 14; TPU film; Rezeptur 1 (nach Beispiel 1); 1 mM photocatalyst in impregnation solution; light 20mW/cm2 10min
S. aureus = test: Bactericidal effect after leaching/washing stress B and C (Beispiel 18), modified ISO 22196; type: cell-based; settings: TPU film, Rezeptur 1, 1 mM
Text: Die Bestimmung der antimikrobiellen Aktivität erfolgte nach einer modifizierten Version der ISO 22196:2011-08 ("Messung von antibakterieller Aktivität auf Kunststoff- und anderen porenfreien Oberflächen", Ausgabedatum: 2011-08).
Bei der Testdurchführung wurde ein dünner Flüssigkeitsfilm, in dem die Bakterien enthalten sind (1,25 x 10^4 /cm^2), direkt auf die Probenkörper (3 x 3 cm) aufgebracht. Direkt nach Beimpfung wurden von der Nullprobe die Bakterien von den Probenkörperoberflächen mittels Ultraschall und Vortexen abgelöst und die Keimzahl (KBE (engl. CFU), Kolonie-bildende Einheit) bestimmt (t0-Wert).
Nach 4h wurden überlebende Bakterien von den Probenkörperoberflächen mittels Ultraschall und Vortexen abgelöst und die Keimzahl bestimmt (t4-Wert).
Im Unterschied zu der in der ISO 22196:2011-08 beschreibenen Methode wurde das Inokulum nicht mit einer Folie abgedeckt und die Inkubationszeit wurde von 24 auf 4 Stunden reduziert. Weiterhin wurden die Probenkörper der Proben 3 und 4 mit Licht der Intensität 20mW/cm2 für 10min belichtet, um eine biozide Wirkung nach Bestrahlung mit elektromagnetischer Strahlung zu bestimmen.
Um die Haltbarkeit des Photokatalysators innerhalb der Folie bzw. dessen Auswaschen gegen gängige Reinigungsmittel zu untersuchen, wurden damit Immersionstest in Wasser und 70% Isopropanol durchgeführt.
Die Folien wurden anschließend mit dem unter B) und C) beschrieben Belastungsverfahren mit den in den Tabellen gezeigten Medien behandelt und in ihrer Wirksamkeit vor/nach Belastung verglichen.

[2] = Leaching test A: screening immersion 24 h, UV-VIS of supernatant (Beispiel 10 A); type: physicochemical; design: Abs. nach Auswaschen: unit not given here; settings: for Berechneter Verlust in %: Rezeptur 1 nach Beispiel 1; for Abs. nach Auswaschen: Rezeptur 1 nach Beispiel 1, supernatant
Method: Um das Auswaschen der verschiedenen Farbstoffe in den Kunststofffolien zu beurteilen, wurde ein Immersionstest in deionisiertem Wasser mit einem pH-Wert von (6 ± 1) (oder gegebenenfalls anderen Lösungsmitteln) und einer Wassertemperatur von (22 ± 3) °C für 24 Stunden durchgeführt.
Dazu wurde ein Folienstück definierter Größe (3 cm x 3 cm) imprägniert (nach Rezeptur 1, Beispiel 1) und anschließend für 24 Stunden in eine definierte Menge deionisiertem Wasser (12,0 mL) gegeben und durch eine Schüttelplatte in Bewegung gehalten. Nach der angegeben Immersionszeit wurde die Folie entnommen und der Überschuss im UV-VIS Spektrometer vermessen, um die ausgewaschene Menge an Farbstoff zu bestimmen. Die Menge wird durch die definierte Größe der Folie und definierte Flüssigkeitsmenge auf einen Quadratzentimeter zurückgerechnet.
Dieser Immersionstest diente dazu, das Auswaschverhalten verschiedener Farbstoffe aus verschiedenen Kunststofffolien zu beurteilen. Weiter sollte er dabei helfen, verschiedene Farbstoffklassen oder verschiedene Farbstoffderivate einer Farbstoffklasse bezüglich dieser Charakteristik miteinander zu vergleichen.
Die zugeschnittenen Folien werden in einem geeigneten Behälter vollständig mit dem Prüfmedium (typischerweise deionisiertes Wasser) bedeckt. Anschließend wird der Behälter zugedeckt und auf die Schüttelplatte aufgebracht. Bei geringer Geschwindigkeit der Platte wird für 24 Stunden gewartet. Nach der Immersion wurden 3 mL des Überstandes durch Absorptionsspektroskopie vermessen.
Die Auswertung erfolgte über das Verhältnis der max. Absorptionswerte einer reinen Farbstofflösung definierter Konzentration und des vermessenen Überstandes. Die Ergebnisse sind in Tabelle 50 dargestellt. Tabelle 50: Auswaschverhalten verschiedener Photokatalysatoren nach Immersionstest A

[3] = Washability test C following DIN EN ISO 11998, 200 sponge cycles with disinfectant solution (Beispiel 10 C); type: physicochemical; settings: TPU, Rezeptur 1 nach Beispiel 2
Method: Der Test wurde in Anlehnung an die DIN EN ISO 11998:2006-10 ("Beschichtungsstoffe - Bestimmung der Nassabriebbeständigkeit und der Reinigungsfähigkeit von Beschichtungen (ISO 11998:2006)"; Ausgabedatum: 2006-10) durchgeführt, um das Auswaschen der verschiedenen Farbstoffe in den Kunststofffolien nach mechanischer Belastung zu beurteilen.
Hierzu wurden 200 Zyklen mit einem Anpressdruck von 135g angewendet. Es wurde ein Schwamm mit 4,0 mL Probelösung vorbereitet, die zu testende Folie eingespannt und der Schwamm aufgebracht. 200 Zyklen entsprachen dabei circa 5 min Kontaktzeit des Schwamms und der Oberfläche. Nach dem Test wurde die Folie entnommen und im UV-VIS Spektrometer vermessen, um die ausgewaschene Menge an Farbstoff zu bestimmen.
Der jeweils gemessene Wert vor dem Test und nach Abschluss der 200 Zyklen wurde verglichen und daraus ein prozentualer Verlust ermittelt.
Vorbereitet wurde die Folie nach Beispiel 2. Die zu verwendete Probelösung entsprach 5 Gew.-% Incidin Plus Lösung, bezogen auf das Gesamtgewicht der Probelösung.
Incidin Pro, der Firma ECOLAB Deutschland GmbH (Monheim), ist ein flüssiges Konzentrat, das sich zur Reinigung und Desinfektion medizinischer Geräte und Flächen in Einrichtungen des Gesundheitswesens angewendet wird.
Der Test ermittelt somit den nach wiederholtem flächigem Abwischen mit einem Desinfektionsmittel aus einer behandelten Oberfläche ausgetragenen Photokatalysator.

verschiedene Virusstämme = test: Antiviral activity of impregnated films following ISO 21702 with illumination (Beispiel 17); settings: TPU film, Rezeptur 1, 1 mM, light 20mW/cm^2 for 83 min
[4] = medium 5% Neutralseife, plastic PVC
[5] = medium 5% Neutralseife, plastic TPU

CC(C)(O)c1cc[n+](CC2=Cc3cccc4cccc(c34)C2=O)cc1 [F-24b]
Abs. 1 min [1]: 0,185 | Abs. 2 min [1]: 0,198 | Abs. 5 min [1]: 0,257 | Abs. 10 min [1]: 0,456 | Log10 Reduktion Hauptprobe (S.aureus ATCC 6538): 4,0 ± 0,3 log10 | Log10 Reduktion Hauptprobe (S. aureus; After Auswaschen nach DIN EN 16105, procedure B), Wasser (dest.)): 1,9 ± 0,5 log10 | Log10 Reduktion Hauptprobe (S. aureus; After Screening Test - Immersion, procedure A), 70% Isopropanol): 1,9 ± 0,6 log10 | Log10 Reduktion Hauptprobe (S. aureus; After Screening Test - Immersion, procedure A), Wasser (dest.)): 3,3 ± 0,7 log10 | Log10 Reduktion Hauptprobe (S. aureus; After Washability nach DIN EN ISO 11998, procedure C), cleaner Neutraldesinfizierend): 4,5 ± 0,6 log10 | Log10 Reduktion Hauptprobe (S. aureus; After Washability nach DIN EN ISO 11998, procedure C), cleaner Sauer-oxidierend): 4,8 ± 0,3 log10 | Berechneter Verlust in % [2, 4]: 3,8% | Abs. nach Auswaschen [2, 4]: 0,024 | Berechneter Verlust in % [2, 5]: 10,7% | Abs. nach Auswaschen [2, 5]: 0,061 | Berechneter Verlust in % ([2]; medium 70% IPA, plastic PVC): 25,4% | Abs. nach Auswaschen ([2]; medium 70% IPA, plastic PVC): 0,160 | Berechneter Verlust in % ([2]; medium 70% IPA, plastic TPU): 34,0% | Abs. nach Auswaschen ([2]; medium 70% IPA, plastic TPU): 0,194 | Berechneter Verlust in % ([2]; medium Wasser, plastic EVA): 2,6% | Abs. nach Auswaschen ([2]; medium Wasser, plastic EVA): 0,015 | Berechneter Verlust in % ([2]; medium Wasser, plastic SEPS): 4,7% | Abs. nach Auswaschen ([2]; medium Wasser, plastic SEPS): 0,027 | Berechneter Verlust in % ([2]; medium Wasser, plastic TPU): 1,4% | Abs. nach Auswaschen ([2]; medium Wasser, plastic TPU): 0,008 | Abs. vor Auswaschen ([3]; Washability test C (DIN EN ISO 11998), film before test): 0,121 | Berechneter Verlust in % ([3]; Washability test C, 200 sponge cycles, 5 Gew.-% Incidin Plus Lösung): 1,7% | Abs. nach Auswaschen ([3]; Washability test C, film after 200 sponge cycles, 135g, 5 Gew.-% Incidin Plus Lösung): 0,119 | Log10 Reduktion Hauptprobe (verschiedene Virusstämme; Virus: Influenza A Virus (H1N1)): 2,5 ± 0,5 log10 | Log10 Reduktion Hauptprobe (verschiedene Virusstämme; Virus: Modified Vaccinia Virus Ankara (MVA)): 4,6 ± 0,6 log10

Source: patent EP4458804A1, “METHOD FOR PRODUCING AN OBJECT, PHENALEN-1-ONE COMPOUND AND USE THEREOF” (TriOptoTec GmbH, priority 2023, dated 2024)
